As a reminder, the IC50 is the concentration that inhibits the measured activity by half. A lower IC50 goes with greater potency.

Here are results for 5 compounds from publication PMC9030166, “Natural Phaeosphaeride A Derivatives Overcome Drug Resistance of Tumor Cells and Modulate Signaling Pathways” (Pharmaceuticals, 2022).

One data set deals with NCI-H929. As to the kind of experiment: MTT cytotoxicity, NCI-H929 multiple myeloma cells. Format: cell-based. The note with it: Homo sapiens, suspension culture, 48 h. The text has this:
(§1) Cell cultures used in the work: adhesive cultures HBL-100 cells (cells of a normal mammary gland epithelium, immortalized by the SV40 virus and acquired tumorigenicity); MCF-7 breast cancer cells; PC-3 prostate adenocarcinoma cells; HCT-116 colorectal cancer cells; non-small cell lung cancer cells A549; human embryonic kidney cells HEK293; suspension cultures (NCI-H929 and RPMI8226 multiple myeloma cells), K562 chronic myeloid leukemia cells; THP-1 acute monocytic leukemia cells; and Jurkat acute T-cell leukemia cells. We also used several primary cultures of soft tissue sarcomas at 3–4passeges, kindly provided by T.I. Fetisov (The Ethics Committee of N.N. Blokhin NMRCO, protocol code 18-28-09095 and date of approval 28 September 2018).
(§2) Modifications of cell lines: K562/i-S9 is a clone obtained after transfection of K562 cells with the ABCB1 (MDR1) gene-encoding P-glycoprotein [36]. Cells HBL-100/Dox and K562/i-S9_Dox are cells obtained by long-term selection with increasing concentrations of doxorubicin (Sigma-Aldrich, St. Louis, MO, USA) from HBL-100 and K562/i-S9 cells, respectively. MCF-7, A594 cells, and primary cultures of soft tissue sarcomas were cultured in DMEM medium (PanEko, Russia), PC-3 and HCT-116 cells and all suspension cultures in RPMI1640 medium (PanEko, Russia) supplemented with 10% fetal bovine serum (GE Healthcare LifeSciences, USA), and gentamicin at a concentration of 40 μg/mL at 37 °C and 5% CO2.
(§3) Cells MCF-7, PC-3, A549, and HCT-116, and primary cultures of STSwere seeded in 96-well plates, 6 × 10^3 cells per well in 90 μL of culture medium. Suspension cultures were seeded at a concentration of 25 × 10^3 cells per well in 135 μL of medium. The test substances were dissolved in DMSO (Applichem, Council Bluffs, IA, USA) until a concentration of 1 × 10^−^2 M was obtained; for the subsequent dilution of the substances, a serum-free culture medium was used. The next day, for adhesive cultures, and on the same day, for suspension cultures, substances were added to the plates in a volume of 10 μL (adhesive cultures) and 15 μL (suspension cultures) per well at various concentrations; each concentration was added in 3–4 repetitions. The cells were cultured in the presence of substances for 48 h. Then, MTT reagent (PanEko, Moscow, Russia) was added to the wells at a concentration of 5 mg/mL in a volume of 20 μL per well. After 1.5–2 h, the medium with the reagent was removed, and the precipitate of the crystals of formazan was dissolved in 60 μL of DMSO. The optical density was determined using a Multiskan FC spectrophotometer (Thermo Scientific, Waltham, MA, USA) at a wavelength of 540 nm.
(§4) Based on the results of the experiments, a schedule was plotted of the dependence of the percentage of surviving cells (from control) on the concentration of the compound, and the sought concentration IC50 was calculated. The experiments were carried out in 3–4 times.

The subject of data set [1] is CMT № 1 (Extraskeletal Ewing’s Sarcoma). In words: MTT cytotoxicity, primary culture of soft tissue sarcoma CMT № 1. Format: cell-based. The settings on record: Homo sapiens, 48 h.
Text: It is believed that such cultures have a molecular profile that corresponds more with cells from the human body, in comparison with that of stable cultures of tumor cells (Table 3).
as §1, §2
as §3, with “Then, MTT reagent (PanEko, Moscow, Russia) was added to the wells at a concentration of 5 mg/mL in a volume of 20 μL per well. After 1.5–2 h, the medium with the reagent was removed, and the precipitate of the crystals of formazan was dissolved in 60 μL of DMSO.” left out
Based on the results of the experiments, a schedule was plotted of the dependence of the percentage of surviving cells (from control) on the concentration of the compound, and the sought concentration IC50 was calculated. […]

Another data set deals with K562/i-S9. As to the kind of experiment: MTT cytotoxicity, resistant K562/i-S9 cells (ABCB1 transfected). Format: cell-based, human. The settings on record: for IC50: Homo sapiens, K562i/S9, resistant version, ABCB1 transfected, MTT, 48 h; for resistance of K562/i-S9 cells relative to K562: ratio of IC50 values, Table 4.
Text: At the next stage, the cytotoxic activity of compounds 1, 2, and 9 (Scheme 2) was investigated on several pairs of cell lines that differ in the expression of P-gp and the method by which they were obtained. K562/i-S9 cells are the result of the ABCB1 transfection into K562 cells, which increases P-gp expression, but should not seriously affect other signaling pathways that could lead to drug resistance. K562/i-S9_Dox cells were obtained from K562/i-S9 by selection with low concentrations of doxorubicin to increase P-gp expression. Subline HBL-100/Dox is a derivative of HBL-100 cells, obtained by long-term selection with increasing concentrations of doxorubicin, which led not only to an increase in P-gp expression, but also to a change in the signaling pathways in this subline. Cells of the K562/i-S9_Dox subline express the highest level of P-gp: 94.7% ± 2.3 (p < 0.0001 relative to K562, and p = 0.04 relative to K562/i-S9). In cells of the K562/i-S9 line, the expression of P-gp is 80% ± 8.2 (p < 0.0001 relative to K562). At 0.7% ± 0.5, P-gp is practically not expressed in K562 cells (Figure 1).
as §2, §3, §4

In another data set the test system is Jurkat. In words: MTT cytotoxicity, Jurkat acute T-cell leukemia cells. The settings on record: Homo sapiens, suspension culture, 48 h. Format: cell-based.
Text: as §1, §2, §3, §4

Turning to `C=C1C2=C(C(=O)N1OC)[C@@H](N1CCCC1)[C@@](C)(O)[C@H](CCCCC)O2` [Compound 1], the IC50 in the data set with NCI-H929 came to 0.7 ± 0.2 µM; in data set [1], 2.6 ± 1.1 µM; with K562/i-S9 it was 2.4 ± 0.6 µM; in the data set on Jurkat, 1.5 ± 0.4 µM. Also, the “resistance of K562/i-S9 cells relative to K562” value in the data set on K562/i-S9 is given as “slightly greater sensitivity”.
For `C=C1C2=C(C(=O)N1OC)[C@@H](N(C)C)[C@@](C)(O)[C@H](CCCCC)O2` [Compound 2, (2S,3R,4R)-4-(dimethylamino)-3-hydroxy-6-methoxy-3-methyl-7-methylene-2-pentyl-3,4,6,7-tetrahydropyrano[2,3-c]pyrrol-5(2H)-one], the IC50 in the data set on NCI-H929 came out at 0.5 ± 0.1 µM; in data set [1] it was 1.6 ± 0.7 µM; with K562/i-S9, 1.6 ± 0.5 µM; with Jurkat, 1.1 ± 0.1 µM.
As for `C=C1C2=C(C(=O)N1OC)[C@@H](N(CCCC)CCCC)[C@@](C)(O)[C@H](CCCCC)O2` [Compound 5, (2S,3R,4R)-4-(dibutylamino)-3-hydroxy-6-methoxy-3-methyl-7-methylene-2-pentyl-3,4,6,7-tetrahydropyrano[2,3-c]pyrrol-5(2H)-one], the figures for the IC50 in the data set on NCI-H929 and in the data set on Jurkat were 2.9 ± 0.3 µM and 3.7 ± 0.2 µM, respectively.
Regarding `C=C1C2=C(C(=O)N1OC)[C@@H](N(CC)CCO)[C@@](C)(O)[C@H](CCCCC)O2` [Compound 9, (2S,3R,4R)-4-[ethyl(2-hydroxyethyl)amino]-3-hydroxy-6-methoxy-3-methyl-7-methylene-2-pentyl-3,4,6,7-tetrahydropyrano[2,3-c]pyrrol-5(2H)-one], the 50% inhibitory concentration (IC50) in the data set on NCI-H929 stood at 0.6 ± 0.2 µM; in data set [1], 2.9 ± 1.1 µM; in the data set on K562/i-S9, 2.8 ± 0.6 µM; in the data set on Jurkat it was 1.3 ± 0.4 µM. The “resistance of K562/i-S9 cells relative to K562” value in the data set with K562/i-S9 is given as “tendency towards increased sensitivity”.
`CCCCC[C@@H]1OC2=C(C(=O)N(OC)/C2=C\n2cnnc2)C(n2cnnc2)[C@@]1(C)O` (stereo partly drawn) [Compound 10]: the IC50 amounted to 5.6 ± 0.7 µM in the data set with NCI-H929 and 94 ± 22.6 µM in the data set with Jurkat.
